Experimental data reported in patent publication US8278032B2, “Transporter protein in mammal and utilization of the same” (priority 2005, dated 2012).

Target: T1, hMATE1 (Homo sapiens, UniProt Q96FL8)
T1 sequence (Q96FL8 1-570): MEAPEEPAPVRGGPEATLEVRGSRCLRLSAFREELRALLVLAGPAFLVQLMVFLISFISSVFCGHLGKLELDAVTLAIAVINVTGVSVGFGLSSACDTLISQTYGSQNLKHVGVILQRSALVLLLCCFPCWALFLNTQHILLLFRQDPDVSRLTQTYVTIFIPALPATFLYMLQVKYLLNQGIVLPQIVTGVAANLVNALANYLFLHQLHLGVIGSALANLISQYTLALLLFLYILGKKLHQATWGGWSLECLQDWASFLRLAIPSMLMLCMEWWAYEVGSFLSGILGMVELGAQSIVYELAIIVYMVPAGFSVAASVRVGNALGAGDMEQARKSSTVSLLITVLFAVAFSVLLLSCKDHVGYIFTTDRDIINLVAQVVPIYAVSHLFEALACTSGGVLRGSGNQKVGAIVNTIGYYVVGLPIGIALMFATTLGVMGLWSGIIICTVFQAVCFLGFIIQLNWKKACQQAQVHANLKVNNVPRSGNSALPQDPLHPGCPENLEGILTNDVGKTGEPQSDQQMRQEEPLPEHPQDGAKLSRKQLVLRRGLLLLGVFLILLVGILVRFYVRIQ
Experiment: Inhibition of RI-labeled TEA uptake in HEK293 cells expressing hMATE1
Conditions: for TEA uptake activity percent taking the level with addition of no compound as 100% (% ± S.D.): 50 μM RI-labeled TEA, pH 8.0, HEK293 cells expressing hMATE1; for Effect on TEA uptake activity (in words): valinomycin 5 μM with 65 mM potassium chloride, nigericin 5 μM with potassium chloride, SF6847 10 μM; for Inhibition of TEA uptake activity (in words, summary of Table 1): MATE1 expressing HEK293 cells, 50 μM TEA, pH 8.0

[1] = HEK293 cells expressing human MATE1, FIG. 9(e)

## CC[C@@H]1C(=O)OC[C@@H]1Cc1cncn1C [Pilocarpine]
Compound 0.1 mM
  TEA uptake activity percent taking the level with addition of no compound as 100% (% ± S.D.): 96.1 ± 0.4%

## CC(C)NCC(O)COc1cccc2ccccc12 (stereo not shown) [Propranolol]
Compound 0.1 mM
  TEA uptake activity percent taking the level with addition of no compound as 100% (% ± S.D.): 30.1 ± 3.9%

## CCc1nc(N)nc(N)c1-c1ccc(Cl)cc1 [Pyrimethamine]
Compound 0.00001 mM
  TEA uptake activity percent taking the level with addition of no compound as 100% (% ± S.D.): 45.2 ± 3.5%
Compound 0.0001 mM
  TEA uptake activity percent taking the level with addition of no compound as 100% (% ± S.D.): 19.8 ± 1.6%

## CCN(CC)CCCC(C)Nc1c2ccc(Cl)cc2nc2ccc(OC)cc12 (stereo not shown) [Quinacrine]
Compound 0.01 mM
  TEA uptake activity percent taking the level with addition of no compound as 100% (% ± S.D.): 41.6 ± 8.2%

## C=C[C@H]1C[N@@]2CC[C@H]1C[C@H]2[C@H](O)c1ccnc2ccc(OC)cc12 [Quinine]
Compound 0.01 mM
  TEA uptake activity percent taking the level with addition of no compound as 100% (% ± S.D.): 30.4 ± 2.8%

## COC(=O)[C@H]1[C@H]2C[C@@H]3c4[nH]c5cc(OC)ccc5c4CCN3C[C@H]2C[C@@H](OC(=O)c2cc(OC)c(OC)c(OC)c2)[C@@H]1OC [Reserpine]
Compound 0.001 mM
  TEA uptake activity percent taking the level with addition of no compound as 100% (% ± S.D.): 86.3 ± 3.5%
Compound 0.01 mM
  TEA uptake activity percent taking the level with addition of no compound as 100% (% ± S.D.): 22.8 ± 0.9%

## C[C@@H]1O[C@@H](OC[C@H]2O[C@@H](Oc3c(-c4ccc(O)c(O)c4)oc4cc(O)cc(O)c4c3=O)[C@H](O)[C@@H](O)[C@@H]2O)[C@H](O)[C@H](O)[C@H]1O [Rutin]
Compound 0.1 mM
  TEA uptake activity percent taking the level with addition of no compound as 100% (% ± S.D.): 71.8 ± 3.6%

## CC(C)(C)c1cc(C=C(C#N)C#N)cc(C(C)(C)C)c1O [SF6847]
[1]
  Effect on TEA uptake activity (in words): greatly decreased

## NCCc1c[nH]c2ccc(O)cc12 [Serotonin]
Compound 0.1 mM
  TEA uptake activity percent taking the level with addition of no compound as 100% (% ± S.D.): 67.5 ± 8.0%

## NCCCCNCCCN [Spermidine]
Compound 0.05 mM
  TEA uptake activity percent taking the level with addition of no compound as 100% (% ± S.D.): 97.0 ± 11.4%

## Cc1ncc(C[n+]2csc(CCO)c2C)c(N)n1 [Thiamine]
Compound 0.1 mM
  TEA uptake activity percent taking the level with addition of no compound as 100% (% ± S.D.): 55.7 ± 7.0%
Compound 1 mM
  TEA uptake activity percent taking the level with addition of no compound as 100% (% ± S.D.): 31.1 ± 3.9%

## N[C@@H](Cc1cc(I)c(Oc2cc(I)c(O)c(I)c2)c(I)c1)C(=O)O [Thyroxine]
Compound 0.1 mM
  TEA uptake activity percent taking the level with addition of no compound as 100% (% ± S.D.): 113.0 ± 4.5%

## Cl.N [ammonium chloride]
HEK293 cells expressing human MATE1, FIG. 9(e), concentration not given
  TEA uptake activity inhibited by: 60%

## C[C@]12CC[C@@H](O)C[C@@H]1CC[C@@H]1[C@@H]2CC[C@]2(C)C(=O)CC[C@@H]12 [androsterone]
  Inhibition of TEA uptake activity (in words, summary of Table 1): inhibited

## CO[C@@H]1C[C@@H](C[C@H]2CC[C@H](C)[C@H]([C@@H](C)C(=O)O)O2)O[C@]2(O[C@](C)([C@H]3CC[C@@](C)([C@@H]4O[C@@H]([C@H]5O[C@@](O)(CO)[C@H](C)C[C@@H]5C)C[C@@H]4C)O3)C[C@H]2C)[C@@H]1C [nigericin]
[1]
  Effect on TEA uptake activity (in words): greatly decreased

## CC(C)[C@@H]1NC(=O)[C@H](C)OC(=O)[C@@H](C(C)C)NC(=O)[C@@H](C(C)C)OC(=O)[C@H](C(C)C)NC(=O)[C@H](C)OC(=O)[C@@H](C(C)C)NC(=O)[C@@H](C(C)C)OC(=O)[C@H](C(C)C)NC(=O)[C@H](C)OC(=O)[C@@H](C(C)C)NC(=O)[C@@H](C(C)C)OC1=O [valinomycin]
[1]
  Effect on TEA uptake activity (in words): not affected

## Catechin
Compound 0.1 mM
  TEA uptake activity percent taking the level with addition of no compound as 100% (% ± S.D.): 104.0 ± 4.4%

## Tocopherol
Compound 0.1 mM
  TEA uptake activity percent taking the level with addition of no compound as 100% (% ± S.D.): 78.8 ± 9.6%

## para-aminobutyric acid
  Inhibition of TEA uptake activity (in words, summary of Table 1): not inhibited
